Source: US20240109877A1, “PYRIMIDINES FOR DEGRADING BRUTON'S TYROSINE KINASE” (AbbVie Inc., priority 2022, published 2024)

How the values were obtained:
[1] = molecular target: BTK protein in human whole blood (Homo sapiens (Human), UniProt Q06187); test: Btk protein in human whole blood MSD ELISA based assay (Btk degradation); assay type: cell-based; conditions: human whole blood from healthy donors, 6 hours at 37° C., half maximal degradation concentration; read-out: hWB BTK DC50
Method: Btk protein degradation was tested using an Meso Scale Discovery-ELISA system (MSD-ELISA): (1) Test compounds were added to human whole blood; (2) human whole blood cells treated with test compounds were lysed; (3) lysed cells were treated with capture antibody, an antibody to Btk; (4) lysed cells were treated with […] to Btk; and (5) lysed cells were treated with anti-mouse antibody (tagged).
Specifically, about 80 μl of fresh human whole blood from healthy donors was transferred into each well of a 96-well V-bottom plate (Costar, Cat No.3894). Using a TECANTM D300e Digital Dispenser (Tecan)), 1:4 serially diluted compounds [(8 pt assay) in DMSO solution (final 0.2%) starting at 3 μM top concentration], were added in duplicate. Thereafter, plates were placed in a 37° C. incubator and incubated for 6 hours.
At the end of incubation, 80 μl of 2× CST lysis buffer (Cell Signaling Technology, Cat No. 9803), prepared from a 10× stock solution, was added per well to lyse the blood. Plates were then sealed with a plate sealer and the samples were frozen overnight at −80° C.
Total amount of BTK protein remaining in the blood samples after compound treatment was measured using MSD-ELISA. After thawing the frozen plates, blood lysates were mixed thoroughly and transferred to small spot high-bind MSD plates (Meso Scale Discovery, Cat No. L45XB-3) and coated with capturing antibody, rabbit anti-human BTK (D3H5) (Cell Signaling Technology, Cat No. 8547CF). Thereafter, primary detection antibody, mouse anti-human BTK monoclonal antibody, (BD Biosciences, Cat No. 611117) and secondary detection antibody, anti-mouse SULFO-TAG (Meso Scale Discovery, Cat No. R32AC-1) were added. The assay plates were read on an MSD S600 plate reader by the addition of 2× MSD read buffer (Meso Scale Discovery, R92TC-1). All reagent transfers, including blood lysis, was conducted using a Biomed i7 liquid handler. From the dose response curves, DC50 values were calculated by averaging data from duplicate experiments. and Curve fitting was done by non-linear regression using GraphPad Prism. The DC50 values are reported in Table 2 in the hWB BTK DC50 (nM) column The Dmax values represent the maximum amount of BTK degradation observed upon compound treatment compared to DMSO only treated samples. The dMax (%) values are reported in Table 2 in the hWB BTK dMax (%) column.

BTK in mouse bone marrow = BTK in mouse bone marrow (Mus musculus (Mouse), UniProt P35991); test: Mouse Bone Marrow Assay (MSD ELISA of BTK degradation in mouse bone marrow); assay type: in vivo; conditions: female C57BL/6J mice, single dose of Dose A, bone marrow collected after 24 hours, % remaining BTK in vehicle versus treated samples
Method: Female C57BL/6J mice (Jackson Laboratories) were used for this study. Compounds or vehicle/control were prepped with EtOH; PEG-400; Phosal 53 MCT (10:30:60, v/v). Four mice were tested per compound or vehicle/control. On Day 1, mice were administered a single dose of Dose A. On Day 2 (after 24 hours), tissue (bone marrow) was collected from one hind leg per mouse.
An MSD (Meso Scale Discovery) ELISA (enzyme-linked immunosorbent assay) based assay was used to determine BTK degradation in mouse bone marrow. The following materials and equipment were used: 10% NP40 solution (nonionic polyoxyethylene surfactant, ThermoFisher, cat no. 28324); protease inhibitor mini tablet (Roche, cat no. 05 892 970 001); PhosphoSTOP™ tablet (Roche, cat no. 04 906 837 001); Pierce™ BCA Protein Assay Kit (Thermofisher, Cat No. 23225); Precellys® 2 mL lysing tube with 2.8 mm beads (VWR, cat no. 10032-756); Bertin Precellys® 24/Cryolys ® cooling system; 96-well MSD streptavidin pre-coated plates (MSD, cat no. L15SA-1); MSD Blocker A (MSD, cat no. R93BA-4); capture antibody, biotinylated BTK mAb (BD Biosciences, cat no. 624008; custom order); primary detection antibody, BTK RpAb (rabbit polyclonal antibody, CST, cat no. 8547S, D3H5 clone); secondary detection antibody, anti-Rabbit-Sulfo-Tag (MSD, cat no. R32AB-1); read Buffer, 4× (MSD, cat no. R92TC-1); recombinant BTK protein (Thermofisher, cat no. PR5442A); MSD Tris Wash Buffer (10×) (MSD, cat no. R61TX-1); PBS (phosphate-buffered saline); deionized water (diH2O); Lysis Buffer [0.2% NP40 in PBS+Protease Inhibitor tablet (1 tablet/10 mL)+PhosphoSTOP tablet (1 tablet/10 mL)]; 3% MSD Blocker A [MSD Blocker A+450 mL diH2O+50 mL]; and 10× MSD Tris Wash Buffer.
Lysis buffer [(PBS+0.2% NP40+PI (protease inhibitor)+PhosphoSTOP)]was prepared and put on ice until it was fully cold. Ice cold lysis buffer […] was added to each Precellys® tube containing beads and bone marrow sample. Sample tubes were transferred into Precellys® machine and homogenized using 5000 rpm -2×20 seconds. The sample lysates were centrifuged at 14,000 rpm for 20 minutes at 4° C. after homogenizing.
The protein concentration was determined using Pierce™ BCA Protein Assay Kit following manufacturer's recommended protocol. The protein normalized working solution was prepared, using 30 μg protein per sample lysate for assay.
A 300 ng/ml working stock solution of recombinant BTK protein in lysis buffer was prepared, and the sample was serially diluted at 3-fold dilution (10-point assay, highest concentration was 300 ng/mL and lowest concentration was 0.015 ng/mL)
MSD plate coating: Coating antibody (biotinylated-BTK mAb) stock solution was prepared at 1 μg/mL in PBS buffer. 50 μL/well capture antibody (Biotinylated BTK mAb) solution was added, and the plates were shaken gently at ambient temperature for two hours. The plates were washed 3 times with 1× MSD Tris Wash Buffer in a plate washer (300 μL/well), and the plates were blocked with 3% MSD Blocker A (150 μL/well). The plates were incubated for an additional 1-2 hours at ambient temperature with gentle shaking. The plates were washed 3 times with 1× MSD wash buffer using plate washer. Bone marrow lysates (30 μg) at a final volume of 50 μL/well were added into the plates. The serially diluted standard samples were added to the same plates at a final volume of 50 μL/well. The plates were incubated overnight at 4° C. with gentle shaking.
The plates were washed three times with 1× MSD wash buffer (prepared from 10× concentration buffer) using plate washer. Primary detection antibody at 50 μL/well was added (BTK RpAb; 1:1000 dilution in 1% MSD Blocker A). The plates were incubated for two hours at ambient temperature with gentle shaking. The plates were washed three times with 1× MSD wash buffer using plate washer. Anti-Rabbit-SULFO-TAG secondary antibodies (50 μl/well) were added, 1:500 diluted in 1% MSD Blocker A, and the plates were incubated for one to two hours at ambient temperature. […]

Sequence of BTK in mouse bone marrow (P35991 whole entry): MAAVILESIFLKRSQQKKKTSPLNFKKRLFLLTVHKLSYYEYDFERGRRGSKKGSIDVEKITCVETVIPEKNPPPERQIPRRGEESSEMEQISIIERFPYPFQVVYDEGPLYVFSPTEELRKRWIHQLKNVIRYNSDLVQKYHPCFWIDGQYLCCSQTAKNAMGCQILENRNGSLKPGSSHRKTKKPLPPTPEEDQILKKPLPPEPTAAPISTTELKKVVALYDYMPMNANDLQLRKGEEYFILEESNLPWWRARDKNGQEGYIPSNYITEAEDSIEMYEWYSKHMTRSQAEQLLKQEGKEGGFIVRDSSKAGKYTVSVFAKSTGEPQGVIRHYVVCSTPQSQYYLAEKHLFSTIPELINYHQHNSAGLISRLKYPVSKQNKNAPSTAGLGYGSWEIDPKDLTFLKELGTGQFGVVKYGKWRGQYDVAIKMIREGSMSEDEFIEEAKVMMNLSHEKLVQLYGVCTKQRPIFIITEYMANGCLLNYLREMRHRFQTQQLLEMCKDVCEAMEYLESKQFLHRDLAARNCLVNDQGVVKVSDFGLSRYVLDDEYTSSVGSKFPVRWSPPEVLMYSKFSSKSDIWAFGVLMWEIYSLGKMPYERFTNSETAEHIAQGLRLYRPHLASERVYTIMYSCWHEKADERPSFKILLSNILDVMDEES
Sequence of BTK protein in human whole blood (Q06187 whole entry): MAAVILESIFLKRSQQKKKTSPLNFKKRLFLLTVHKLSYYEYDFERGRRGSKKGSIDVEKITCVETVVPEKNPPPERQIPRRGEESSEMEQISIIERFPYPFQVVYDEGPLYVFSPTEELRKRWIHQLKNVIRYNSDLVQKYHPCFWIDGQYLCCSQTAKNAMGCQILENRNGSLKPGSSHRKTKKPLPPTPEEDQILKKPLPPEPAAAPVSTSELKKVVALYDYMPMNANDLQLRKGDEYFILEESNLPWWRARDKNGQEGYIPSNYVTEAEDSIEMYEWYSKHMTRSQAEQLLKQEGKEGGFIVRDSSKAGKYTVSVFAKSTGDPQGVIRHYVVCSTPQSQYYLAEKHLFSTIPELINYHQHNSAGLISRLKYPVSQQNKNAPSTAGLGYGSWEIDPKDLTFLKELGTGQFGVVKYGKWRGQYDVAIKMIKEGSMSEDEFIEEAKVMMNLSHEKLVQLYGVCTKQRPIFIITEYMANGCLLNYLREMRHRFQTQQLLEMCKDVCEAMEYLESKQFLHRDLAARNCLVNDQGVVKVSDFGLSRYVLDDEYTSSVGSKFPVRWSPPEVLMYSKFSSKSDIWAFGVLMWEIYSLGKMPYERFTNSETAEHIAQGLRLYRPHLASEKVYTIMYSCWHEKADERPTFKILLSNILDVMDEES

DC50 [1] [nM]	Mouse Bone Marrow (%), % remaining BTK (BTK in mouse bone marrow) [%]	Compound
4.08	11	Cc1cc(-c2cc(Nc3ccc(N4CCN(CCc5ccc(N6CCC(=O)NC6=O)cc5)C[C@@H]4C)cn3)ncn2)ccc1[C@@H](C)NC(=O)c1nc(C(C)(C)C)no1 [Example 1, 3-tert-butyl-N-[(1R)-1-{4-[6-({5-[(2S)-4-{2-[4-(2,4-dioxo-1,3-diazinan-1-yl)phenyl]ethyl}-2-methylpiperazin-1-yl]pyridin-2-yl}amino)pyrimidin-4-yl]-2-methylphenyl}ethyl]-1,2,4-oxadiazole-5-carboxamide]
5.93	12	Cc1cc(-c2cc(Nc3ccc(N4CCN(CCc5ccc(N6CCC(=O)NC6=O)cc5)C[C@H]4C)cn3)ncn2)ccc1[C@@H](C)NC(=O)c1nc(C(C)(C)C)no1 [Example 2, 3-tert-butyl-N-[(1R)-1-{4-[6-({5-[(2R)-4-{2-[4-(2,4-dioxo-1,3-diazinan-1-yl)phenyl]ethyl}-2-methylpiperazin-1-yl]pyridin-2-yl}amino)pyrimidin-4-yl]-2-methylphenyl}ethyl]-1,2,4-oxadiazole-5-carboxamide]
2.88	22	Cc1cc(-c2cc(Nc3ccc(N4CCN(CCc5ccc(N6CCC(=O)NC6=O)cc5)CC4)cn3)ncn2)ccc1[C@@H](C)NC(=O)c1nc(C(C)(C)C)no1 [Example 3, 3-tert-butyl-N-{(1R)-1-[4-(6-{[5-(4-{2-[4-(2,4-dioxo-1,3-diazinan-1-yl)phenyl]ethyl}piperazin-1-yl)pyridin-2-yl]amino}pyrimidin-4-yl)-2-methylphenyl]ethyl}-1,2,4-oxadiazole-5-carboxamide]
7.62	13	Cc1cc(-c2cc(Nc3ccc(N4CCN(CCc5ccc(N6CCC(=O)NC6=O)c(F)c5)C[C@@H]4C)cn3)ncn2)ccc1[C@@H](C)NC(=O)c1nc(C(C)(C)C)no1 [Example 4, 3-tert-butyl-N-[(1R)-1-{4-[6-({5-[(2S)-4-{2-[4-(2,4-dioxo-1,3-diazinan-1-yl)-3-fluorophenyl]ethyl}-2-methylpiperazin-1-yl]pyridin-2-yl}amino)pyrimidin-4-yl]-2-methylphenyl}ethyl]-1,2,4-oxadiazole-5-carboxamide]
6	12	Cc1cc(-c2cc(Nc3ccc(N4CCN(CCc5ccc(N6CCC(=O)NC6=O)c(F)c5)C[C@H]4C)cn3)ncn2)ccc1[C@@H](C)NC(=O)c1nc(C(C)(C)C)no1 [Example 5, 3-tert-butyl-N-[(1R)-1-{4-[6-({5-[(2R)-4-{2-[4-(2,4-dioxo-1,3-diazinan-1-yl)-3-fluorophenyl]ethyl}-2-methylpiperazin-1-yl]pyridin-2-yl}amino)pyrimidin-4-yl]-2-methylphenyl}ethyl]-1,2,4-oxadiazole-5-carboxamide]
2.45	19	CC[C@H]1CN(CCc2ccc(N3CCC(=O)NC3=O)cc2)CCN1c1ccc(Nc2cc(-c3ccc([C@@H](C)NC(=O)c4nc(C(C)(C)C)no4)c(C)c3)ncn2)nc1 [Example 6, 3-tert-butyl-N-[(1R)-1-{4-[6-({5-[(2S)-4-{2-[4-(2,4-dioxo-1,3-diazinan-1-yl)phenyl]ethyl}-2-ethylpiperazin-1-yl]pyridin-2-yl}amino)pyrimidin-4-yl]-2-methylphenyl}ethyl]-1,2,4-oxadiazole-5-carboxamide]
18.7	22	CC[C@H]1CN(CCc2ccc(N3CCC(=O)NC3=O)c(F)c2)CCN1c1ccc(Nc2cc(-c3ccc([C@@H](C)NC(=O)c4nc(C(C)(C)C)no4)c(C)c3)ncn2)nc1 [Example 7, 3-tert-butyl-N-[(1R)-1-{4-[6-({5-[(2S)-4-{2-[4-(2,4-dioxo-1,3-diazinan-1-yl)-3-fluorophenyl]ethyl}-2-ethylpiperazin-1-yl]pyridin-2-yl}amino)pyrimidin-4-yl]-2-methylphenyl}ethyl]-1,2,4-oxadiazole-5-carboxamide]
4.04	30	CC[C@@H]1CN(CCc2ccc(N3CCC(=O)NC3=O)cc2)CCN1c1ccc(Nc2cc(-c3ccc([C@@H](C)NC(=O)c4nc(C(C)(C)C)no4)c(C)c3)ncn2)nc1 [Example 8, 3-tert-butyl-N-[(1R)-1-{4-[6-({5-[(2R)-4-{2-[4-(2,4-dioxo-1,3-diazinan-1-yl)phenyl]ethyl}-2-ethylpiperazin-1-yl]pyridin-2-yl}amino)pyrimidin-4-yl]-2-methylphenyl}ethyl]-1,2,4-oxadiazole-5-carboxamide]
9.61	31	Cc1cc(-c2cc(Nc3ccc(N4CCN(CCc5ccc(N6CCC(=O)NC6=O)cc5)CC4(C)C)cn3)ncn2)ccc1[C@@H](C)NC(=O)c1nc(C(C)(C)C)no1 [Example 9, 3-tert-butyl-N-{(1R)-1-[4-(6-{[5-(4-{2-[4-(2,4-dioxo-1,3-diazinan-1-yl)phenyl]ethyl}-2,2-dimethylpiperazin-1-yl)pyridin-2-yl]amino}pyrimidin-4-yl)-2-methylphenyl]ethyl}-1,2,4-oxadiazole-5-carboxamide]
2.27	17	Cc1cc(-c2cc(Nc3ccc(N4CCN(CCc5ccc(N6CCC(=O)NC6=O)cc5)CC4)cn3)ncn2)c(F)cc1[C@@H](C)NC(=O)c1nc(C(C)(C)C)no1 [Example 12, 3-tert-butyl-N-{(1R)-1-[4-(6-{[5-(4-{2-[4-(2,4-dioxo-1,3-diazinan-1-yl)phenyl]ethyl}piperazin-1-yl)pyridin-2-yl]amino}pyrimidin-4-yl)-5-fluoro-2-methylphenyl]ethyl}-1,2,4-oxadiazole-5-carboxamide]
